Measurements: paper PMC10600239, “Selective MCL-1 inhibitor ABBV-467 is efficacious in tumor models but is associated with cardiac troponin increases in patients” (Communications Medicine, 2023)
Several values for one entry are separate records, joined by “and”; a condition that tells them apart may be missing. Equal entries are not always repeated.

System: AMO-1 xenografts
Test: AMO-1 xenograft efficacy (tumor volume, body weight)
Type: in vivo, mouse
Design: key to Anti-tumor Activity vs. AMO-1 (DSMZ), Median / Anti-tumor Activity vs. AMO-1 (DSMZ), individual animal / Anti-tumor Activity vs. AMO-1 (DSMZ), Mean: tumor volume in mm^3 (length × width^2/2)
Procedure: All animal studies were conducted in accordance with the guidelines approved by the Institutional Animal Care and Use Committees of AbbVie. The research protocol was approved by In Vivo Pharmacology at AbbVie prior to study initiation but was not publicly registered or disclosed. Female C.B-17 SCID-beige mice (AMO-1, OPM-2, NCI-H929, and OCI-AML2 xenografts) and female NSG mice (MV4-11-Red.Fluc systemic) were purchased from Charles River Laboratories (Wilmington, MA). Animals were housed in a light cycle-controlled room with HEPA filtration at 22 °C. Animals had nesting and climbing cage topper as the primary environmental enrichment. Animals were inoculated subcutaneously in the right flank with 5 × 10^6 (AMO-1, OPM-2, NCI-H929, and OCI-AML2) or intravenous (IV) with 5 × 10^6 (MV4-11-Red.Fluc). The inoculation volume (0.2 mL) comprised a 50:50 mixture of cells in growth media and Matrigel (BD Biosciences) for subcutaneous injections and 100% phosphate-buffered saline for IV administration. All cell lines used in this publication were authenticated using IDEXX for STR profiling as well as their IMPACT and human IMPACT panels for pathogen screening. Electronic calipers were used to measure the length and width of each tumor 2 to 3 times per week. Tumor volume was estimated by applying the following equation: volume = length × width^2/2. All groups remained blinded during measurements and dosing; only veterinary staff were aware of group identity. When tumors reached approximately 200 mm^3, mice were randomized by match and distributed into treatment and control groups. All xenograft trials were conducted using 5 to 10 mice per group, and all mice were ear tagged and monitored individually throughout the studies. […] Tumor burden in the systemic MV4-11-Red.Fluc experiment was measured using an IVIS® spectrum from PerkinElmer by taking the total photon flux of the entire dorsal side of an individual mouse. […] A background control mouse that was tumor naive but received D-Luciferin was placed in the upper left corner of each image. The total flux from this animal was subtracted from the total flux of each animal present in the image.
For in vivo studies, maximal tumor growth inhibition (TGI) was calculated as the greatest treatment response using the following equation: Maximal TGI = (1 − mean tumor volume of the treated group/mean tumor volume of the vehicle control group) × 100. The tumor growth delay (TGD) percentage was determined as the percentage increase of the median time period for the treatment group to reach an arbitrary tumor volume of 1000 mm^3 relative to the vehicle control group. […] A power analysis was conducted using historical data to determine the number of animals required to yield significance of 0.05 at a 30% difference. […] Data from experiments in vivo were analyzed using the student’s t-test for TGI values and the Mann–Whitney U test for TGD using Excel and GraphPad Prism. Fisher’s exact test was used to probe significance of differences in response frequency.

[1] = 6.25 mg/kg IV QDx1, Day 13 (day before dosing begins)
[2] = 6.25 mg/kg Q7Dx2 IV, SCID-beige female mice, Day 21
[3] = 6.25 mg/kg Q7Dx2 IV, SCID-beige female mice, Day 24

Cc1c(Cl)c2c(Cl)c(C)c1-c1c(-c3ccc(F)cc3)sc3ncnc(c13)O[C@@H](C(=O)O)Cc1cc(ccc1OCc1ccnc(-c3ccc(OC[C@H]4COCCO4)cc3)n1)OC[C@@H](CN1CCN(C)CC1)O2 [Compound A-1747745.0]
Anti-tumor Activity vs. AMO-1 (DSMZ), Median (6.25 mg/kg IV QDx1, day 23): 225.89 | Group Mean, Body Weight (6.25 mg/kg IV QDx1, day 23): 22.00 g | Anti-tumor Activity vs. AMO-1 (DSMZ), Mean (6.25 mg/kg IV QDx1, day 26): 454.97 | Anti-tumor Activity vs. AMO-1 (DSMZ), Median (6.25 mg/kg IV QDx1, day 26): 392.97 | Anti-tumor Activity vs. AMO-1 (DSMZ), Mean (6.25 mg/kg IV QDx1, day 28): 690.68 | Anti-tumor Activity vs. AMO-1 (DSMZ), Median (6.25 mg/kg IV QDx1, day 28): 578.26 | Group Mean, Body Weight (6.25 mg/kg IV QDx1, day 28): 22.25 g | Anti-tumor Activity vs. AMO-1 (DSMZ), Mean (6.25 mg/kg IV QDx1, day 30): 882.20 | Anti-tumor Activity vs. AMO-1 (DSMZ), Median (6.25 mg/kg IV QDx1, day 30): 791.67 | Anti-tumor Activity vs. AMO-1 (DSMZ), Mean (6.25 mg/kg IV QDx1, day 34): 1592.98 | Anti-tumor Activity vs. AMO-1 (DSMZ), Median (6.25 mg/kg IV QDx1, day 34): 1465.20 | Anti-tumor Activity vs. AMO-1 (DSMZ), Mean (6.25 mg/kg IV QDx1, day 36): 1754.60 | Anti-tumor Activity vs. AMO-1 (DSMZ), Median (6.25 mg/kg IV QDx1, day 36): 1695.89 | Xenograft AMO-1 (DSMZ) tumor volume Day 13, Mean [1]: 216.25 mm³ | Xenograft AMO-1 (DSMZ) tumor volume Day 13, Median [1]: 216.39 mm³ | % T/C (mean) [1]: 100.07% | % T/C (median) [1]: 100.10% | Xenograft AMO-1 (DSMZ) (mm³) Day 13, individual animals (6.25 mg/kg IV QDx1, SCID-beige female mice, Day 13 (randomization, day before dosing begins)): 219 mm³ and 211 mm³ and 216 mm³ and 221 mm³ and 217 mm³ and 214 mm³ and 224 mm³ and 208 mm³ | Mortality Observation Day 32 (6.25 mg/kg Q7Dx2 IV, AMO-1 (DSMZ) xenograft, SCID-beige female mice, per animal): EUTV (6×) and GRPX | % T/C (mean) (6.25 mg/kg Q7Dx2 IV, Day 13): 101.00% | % T/C (median) (6.25 mg/kg Q7Dx2 IV, Day 13): 98.08% | % T/C (mean) (6.25 mg/kg Q7Dx2 IV, Day 19): 30.07% | % T/C (median) (6.25 mg/kg Q7Dx2 IV, Day 19): 31.46% | % T/C (mean) (6.25 mg/kg Q7Dx2 IV, Day 21): 29.54% | % T/C (median) (6.25 mg/kg Q7Dx2 IV, Day 21): 27.04% | % T/C (mean) (6.25 mg/kg Q7Dx2 IV, Day 24): 22.09% | % T/C (median) (6.25 mg/kg Q7Dx2 IV, Day 24): 20.32% | % T/C (mean) (6.25 mg/kg Q7Dx2 IV, Day 26): 21.67% | % T/C (median) (6.25 mg/kg Q7Dx2 IV, Day 26): 14.15% | % T/C (mean) (6.25 mg/kg Q7Dx2 IV, Day 28): 23.23% | % T/C (median) (6.25 mg/kg Q7Dx2 IV, Day 28): 13.94% | Xenograft AMO-1 (DSMZ) Day 19 Mean (6.25 mg/kg Q7Dx2 IV, SCID-beige female mice, Day 19, group mean tumor volume): 118.80 mm³ | Xenograft AMO-1 (DSMZ) Day 19 Median (6.25 mg/kg Q7Dx2 IV, SCID-beige female mice, Day 19, group median tumor volume): 115.27 mm³ | Xenograft AMO-1 (DSMZ) (mm³) Day 19, individual animals (6.25 mg/kg Q7Dx2 IV, SCID-beige female mice, Day 19, individual tumor volumes): 119 mm³ and 199 mm³ and 123 mm³ and 80 mm³ and 92 mm³ and 115 mm³ and 104 mm³ | Xenograft AMO-1 (DSMZ) Day 21, Mean [2]: 190.88 mm³ | Xenograft AMO-1 (DSMZ) Day 21, Median [2]: 163.99 mm³ | Xenograft AMO-1 (DSMZ) tumor volume Day 21, individual animals [2]: 209 mm³ and 370 mm³ and 179 mm³ and 144 mm³ and 116 mm³ and 164 mm³ and 155 mm³ | Xenograft AMO-1 (DSMZ) (mm³) Day 24, individual animals [3]: 184 mm³ and 451 mm³ and 200 mm³ and 190 mm³ and 174 mm³ and 138 mm³ and 133 mm³ | Xenograft AMO-1 (DSMZ) tumor volume Day 24, Mean [3]: 210.06 mm³
